# Reference: patent US10941399B2, “Methods and compositions for gene-specific demethylation by DNA methyltransferase (DNMT)-RNA interaction” (Beth Israel Deaconess Medical Center, Inc., priority 2011, dated 2021)
# Entries after “also recorded” stand apart in the source; their conditions may differ. [5mC] = 5-methylcytosine
# Molecular target: DNMT1 (Homo sapiens, UniProt P26358)
# Assay: Electrophoretic gel mobility shift assays (EMSA/REMSA) and Kd determination with purified DNMT1
# Type: binding
# Design: purchased BPS Bioscience Inc
# Conditions: for Kd: constant oligonucleotide concentration (1 nM) titrated with increasing DNMT1, nonlinear regression, read-out: dissociation constant (Kd)
# Description: Electrophoretic gel mobility shift assays (EMSAs) and Kd determination: DNA and RNA oligonucleotides (15 pmol) were end-labeled with [γ-32P] ATP (Perkin Elmer) and T4 polynucleotide kinase (New England Biolabs). Reactions were incubated at 37° C. for 1h and then passed through G-25 spin columns (GE Healthcare) according to the manufacturer's instructions to remove unincorporated radioactivity. Labeled samples were gel-purified on 10% polyacrylamide gels. Binding reactions were carried out in 10 μL volumes in the following buffer: 5 mM Tris pH 7.4, 5 mM MgCl2, 1 mM DTT, 3% v/v glycerol, 100 mM NaCl. Various amounts of purified DNMT1 protein (BPS Bioscience Inc., 0.021-0.156 μM) were incubated with 1.1 nM of 32P-labeled dsDNA and ss/ds RNAs. In the competitive assay, a fixed amount of protein and increasing amounts of competitors (dsDNA or poly (dI-dC)) were used. All reactions were assembled on ice and then incubated at room temperature. Samples were loaded onto 6% native polyacrylamide gels (0.5×TBE) at 4° C. for 3 h at 140 V. Gels were dried and exposed to X-ray film and a PhosphorImager screen. Data were analyzed with ImageQuant software. For affinity assays, the percent shifted species was determined as follows: the migration of the labeled DNA in this reaction was defined as zero percent shifted and the ratio of the PhosphorImager counts in the area of the lane above this band to the total counts in the lane was defined as background and subtracted from all other lanes. This band represented total input. Subsequent lanes containing DNMT1-nucleic acid complexes were treated identically, and the percentage complex formation was calculated as follows: [Input-(free probe for each lane+background/input)]. All experiments contained a control reaction lacking DNMT1. The percentage complex formation was plotted as a function of DNMT1 concentration using nonlinear regression analysis using Prism 4.0a.
# DNMT1, sequence (P26358 whole entry): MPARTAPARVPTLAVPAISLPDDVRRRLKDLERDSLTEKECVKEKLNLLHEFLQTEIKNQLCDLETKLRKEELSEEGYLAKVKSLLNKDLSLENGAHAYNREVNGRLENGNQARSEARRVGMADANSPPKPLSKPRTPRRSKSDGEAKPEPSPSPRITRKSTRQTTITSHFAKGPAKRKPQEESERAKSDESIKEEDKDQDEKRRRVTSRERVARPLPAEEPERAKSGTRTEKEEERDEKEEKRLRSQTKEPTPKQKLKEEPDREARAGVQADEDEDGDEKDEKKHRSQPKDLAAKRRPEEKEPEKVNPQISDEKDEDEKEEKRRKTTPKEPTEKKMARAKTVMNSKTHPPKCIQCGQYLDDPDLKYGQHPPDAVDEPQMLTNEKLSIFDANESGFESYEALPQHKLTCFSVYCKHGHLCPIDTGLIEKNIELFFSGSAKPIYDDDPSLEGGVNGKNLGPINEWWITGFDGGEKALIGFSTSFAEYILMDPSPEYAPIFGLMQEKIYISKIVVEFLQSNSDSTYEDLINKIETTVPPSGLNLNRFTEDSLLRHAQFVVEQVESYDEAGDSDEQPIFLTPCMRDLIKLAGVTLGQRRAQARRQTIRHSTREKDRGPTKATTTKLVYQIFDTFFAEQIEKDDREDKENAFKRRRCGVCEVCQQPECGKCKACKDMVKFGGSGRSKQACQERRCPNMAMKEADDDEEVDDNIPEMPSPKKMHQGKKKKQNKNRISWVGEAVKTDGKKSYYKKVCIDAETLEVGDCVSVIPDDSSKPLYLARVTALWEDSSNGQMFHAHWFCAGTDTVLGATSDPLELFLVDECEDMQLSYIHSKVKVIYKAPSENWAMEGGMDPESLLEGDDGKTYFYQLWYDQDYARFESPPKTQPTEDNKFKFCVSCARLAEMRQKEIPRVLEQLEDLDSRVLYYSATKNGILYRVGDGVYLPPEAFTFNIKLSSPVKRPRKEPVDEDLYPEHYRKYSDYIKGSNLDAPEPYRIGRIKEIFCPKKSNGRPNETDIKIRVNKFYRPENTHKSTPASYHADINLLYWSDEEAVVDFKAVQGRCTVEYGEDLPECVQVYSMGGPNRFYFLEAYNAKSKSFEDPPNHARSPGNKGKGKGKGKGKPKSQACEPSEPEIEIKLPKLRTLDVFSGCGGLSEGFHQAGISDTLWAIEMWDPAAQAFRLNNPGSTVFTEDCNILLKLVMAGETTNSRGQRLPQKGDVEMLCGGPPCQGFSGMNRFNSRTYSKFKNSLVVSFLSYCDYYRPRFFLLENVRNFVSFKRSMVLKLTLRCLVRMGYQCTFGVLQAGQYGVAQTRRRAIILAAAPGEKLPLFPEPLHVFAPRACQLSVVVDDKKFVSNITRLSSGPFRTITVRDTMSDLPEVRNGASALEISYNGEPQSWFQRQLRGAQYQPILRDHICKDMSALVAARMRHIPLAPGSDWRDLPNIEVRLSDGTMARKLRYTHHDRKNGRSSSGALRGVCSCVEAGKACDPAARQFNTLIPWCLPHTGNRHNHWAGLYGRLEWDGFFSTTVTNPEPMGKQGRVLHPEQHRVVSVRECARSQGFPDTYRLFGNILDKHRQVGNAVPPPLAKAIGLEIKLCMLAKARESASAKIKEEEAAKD
compound,measurement,setting,value
NCCCNCCCCNCCCN [spermine],effect of spermine on RNA-DNMT1 binding,REMSA with increasing concentrations of spermine,Only a thousand-fold molar excess of spermine began to moderately affect the binding; also recorded: no significant changes in binding were observed
"R04: ssRNA oligonucleotide of C/EBPa ecRNA, positions 4777-4798 of SEQ ID NO:8 (SEQ ID NO:63), lacking stem-and-loop-like structures (UCACACACACCGCAGCUCCAGA; chemistry not given here; listed as Homo sapiens)",DNMT1 binding affinity in REMSA (in words),,did not display the same binding affinity as folded RNA; also recorded: lower DNMT1 affinity compared to R05
"RNA: folded ssRNA oligonucleotide of C/EBPa ecRNA, positions 4627-4648 of SEQ ID NO:8 (SEQ ID NO:62) (CUGAGGCCUUGGCGAGGCUUCU; chemistry not given here; listed as Homo sapiens)",Kd,EMSA,45 nM
same,DNMT1 concentration at which initial complex is formed,"EMSA, increasing DNMT1 concentrations",< 0.013 µM
same,strength of DNMT1 complex with RNA compared to hmDNA and mDNA,ratio versus hmDNA and mDNA,3 fold
same,strength of DNMT1 complex with RNA compared to umDNA,ratio versus umDNA,2 fold
"hmDNA: hemimethylated dsDNA probe (SEQ ID NOs:65, 72) (chain 1 CTGAGGCCTTGGCGAGGCTTCT; chain 2 AGAAGCCTCGCCAAGGCCTCAG; chain 1: DNA, [5mC] at 13, backbone and methylation of C not given here; chain 2: DNA, backbone not given here; listed as Homo sapiens)",Kd,EMSA,140 nM
"mDNA: methylated dsDNA probe (SEQ ID NOs:66, 73) (chain 1 CTGAGGCCTTGGCGAGGCTTCT; chain 2 AGAAGCCTCGCCAAGGCCTCAG; chain 1: DNA, [5mC] at 13, backbone not given here; chain 2: DNA, [5mC] at 9, backbone not given here; listed as Homo sapiens)",Kd,EMSA,110 nM
mutated R01: R01 with C to U substitutions in CpG dinucleotides (SEQ ID NO:69) (CUGGGAUGCAGGUGGUGUCAGGC; chemistry not given here; listed as Homo sapiens),DNMT1 binding after C to U substitution of CpG dinucleotides,stem-and-loop-like structure preserved,not affected
"umDNA: unmethylated dsDNA probe (SEQ ID NOs:64, 71) (chain 1 CTGAGGCCTTGGCGAGGCTTCT; chain 2 AGAAGCCTCGCCAAGGCCTCAG; DNA, backbone not given here; listed as Homo sapiens)",Kd,EMSA,82 nM
